Source: patent US11331369B2, “Endoparasitic depsipeptides” (Zoetis Services LLC, priority 2017, dated 2022)

Experiments:
[1] = test system: microfilariae of Dirofilaria immitis; test: Dirofilaria immitis, Microfilaria (DiMF) In vitro Assay; format: cell-based; conditions: 72 h, read-out: DiMF Minimum Effective Dose (MED), approximately 72 hours incubation, microfilariae assessed for survival or paralysis
[2] = test system: 4th stage larvae (L4) of Dirofilaria immitis; test: Dirofilaria immitis, L4 Stage (DiL4) In Vitro Assay; format: cell-based; conditions: Dirofilaria immitis, 72 h, read-out: DiL4 Minimum Effective Dose (MED), approximately 72 hours incubation; L4 larvae assessed for survival or paralysis

| SMILES | minimal effective concentration [1] [µM] | minimal effective concentration [2] [µM] |
| --- | --- | --- |
| CC(C)C[C@H]1C(=O)O[C@H](Cc2ccc(Cn3nccc3C3CCCC3)cc2)C(=O)N(C)[C@@H](CC(C)C)C(=O)O[C@H](C)C(=O)N(C)[C@@H](CC(C)C)C(=O)O[C@H](Cc2ccc(Cn3nccc3C3CCCC3)cc2)C(=O)N(C)[C@@H](CC(C)C)C(=O)O[C@H](C)C(=O)N1C [Example 1b-154, (3S,6R,9S,12R,15S,18R,21S,24R)-6,18-bis(4-((5-cyclopentyl-1H-pyrazol-1-yl)methyl)benzyl)-3,9,15,21-tetraisobutyl-4,10,12,16,22,24-hexamethyl-1,7,13,19-tetraoxa-4,10,16,22-tetraazacyclotetracosan-2,5,8,11,14,17,20,23-octaone] | 0.001 to 0.01 | ≤ 0.0001 |
| COCc1cnn(Cc2ccc(C[C@H]3OC(=O)[C@H](CC(C)C)N(C)C(=O)[C@@H](C)OC(=O)[C@H](CC(C)C)N(C)C(=O)[C@@H](Cc4ccc(Cn5cc(COC)cn5)cc4)OC(=O)[C@H](CC(C)C)N(C)C(=O)[C@@H](C)OC(=O)[C@H](CC(C)C)N(C)C3=O)cc2)c1 [Example 1b-155, (3S,6R,9S,12R,15S,18R,21S,24R)-3,9,15,21-tetraisobutyl-6,18-bis(4-((4-(methoxymethyl)-1H-pyrazol-1-yl)methyl)benzyl)-4,10,12,16,22,24-hexamethyl-1,7,13,19-tetraoxa-4,10,16,22-tetraazacyclotetracosan-2,5,8,11,14,17,20,23-octaone] | 0.001 to 0.01 | 0.001 to 0.01 |
| CC(C)COc1cnn(Cc2ccc(C[C@H]3OC(=O)[C@H](CC(C)C)N(C)C(=O)[C@@H](C)OC(=O)[C@H](CC(C)C)N(C)C(=O)[C@@H](Cc4ccc(Cn5cc(OCC(C)C)cn5)cc4)OC(=O)[C@H](CC(C)C)N(C)C(=O)[C@@H](C)OC(=O)[C@H](CC(C)C)N(C)C3=O)cc2)c1 [Example 1b-172, (3S,6R,9S,12R,15S,18R,21S,24R)-6,18-bis(4-((4-isobutoxy-1H-pyrazol-1-yl)methyl)benzyl)-3,9,15,21-tetraisobutyl-4,10,12,16,22,24-hexamethyl-1,7,13,19-tetraoxa-4,10,16,22-tetraazacyclotetracosan-2,5,8,11,14,17,20,23-octaone] | 0.01 to 0.1 | 0.001 to 0.01 |
| CC(C)C[C@H]1C(=O)O[C@H](Cc2ccc(Cn3cc(Oc4nccs4)cn3)cc2)C(=O)N(C)[C@@H](CC(C)C)C(=O)O[C@H](C)C(=O)N(C)[C@@H](CC(C)C)C(=O)O[C@H](Cc2ccc(Cn3cc(Oc4nccs4)cn3)cc2)C(=O)N(C)[C@@H](CC(C)C)C(=O)O[C@H](C)C(=O)N1C [Example 1b-174, (3S,6R,9S,12R,15S,18R,21S,24R)-3,9,15,21-tetraisobutyl-4,6,10,16,18,22-hexamethyl-12,24-bis(4-((4-(thiazol-2-yloxy)-1H-pyrazol-1-yl)methyl)benzyl)-1,7,13,19-tetraoxa-4,10,16,22-tetraazacyclotetracosan-2,5,8,11,14,17,20,23-octaone] | 0.001 to 0.01 | 0.001 to 0.01 |
| CC(C)C[C@H]1C(=O)O[C@H](Cc2ccc(Cn3cc(Oc4ccccn4)cn3)cc2)C(=O)N(C)[C@@H](CC(C)C)C(=O)O[C@H](C)C(=O)N(C)[C@@H](CC(C)C)C(=O)O[C@H](Cc2ccc(Cn3cc(Oc4ccccn4)cn3)cc2)C(=O)N(C)[C@@H](CC(C)C)C(=O)O[C@H](C)C(=O)N1C [Example 1b-175, (3S,6R,9S,12R,15S,18R,21S,24R)-3,9,15,21-tetraisobutyl-4,6,10,16,18,22-hexamethyl-12,24-bis(4-((4-(pyridin-2-yloxy)-1H-pyrazol-1-yl)methyl)benzyl)-1,7,13,19-tetraoxa-4,10,16,22-tetraazacyclotetracosan-2,5,8,11,14,17,20,23-octaone] | 0.001 to 0.01 | 0.001 to 0.01 |
| Cc1cc(C2CC2)n(Cc2ccc(C[C@H]3OC(=O)[C@H](CC(C)C)N(C)C(=O)[C@@H](C)OC(=O)[C@H](CC(C)C)N(C)C(=O)[C@@H](Cc4ccc(Cn5nc(C)cc5C5CC5)cc4)OC(=O)[C@H](CC(C)C)N(C)C(=O)[C@@H](C)OC(=O)[C@H](CC(C)C)N(C)C3=O)cc2)n1 [Example 1b-181, (3S,6R,9S,12R,15S,18R,21S,24R)-6,18-bis(4-((5-cyclopropyl-3-methyl-1H-pyrazol-1-yl)methyl)benzyl)-3,9,15,21-tetraisobutyl-4,10,12,16,22,24-hexamethyl-1,7,13,19-tetraoxa-4,10,16,22-tetraazacyclotetracosan-2,5,8,11,14,17,20,23-octaone] | 0.01 to 0.1 | 0.001 to 0.01 |
| CC(C)C[C@H]1C(=O)O[C@H](Cc2ccc(Cn3cc(COC(C)C)cn3)cc2)C(=O)N(C)[C@@H](CC(C)C)C(=O)O[C@H](C)C(=O)N(C)[C@@H](CC(C)C)C(=O)O[C@H](Cc2ccc(Cn3cc(COC(C)C)cn3)cc2)C(=O)N(C)[C@@H](CC(C)C)C(=O)O[C@H](C)C(=O)N1C [Example 1b-184, (3S,6R,9S,12R,15S,18R,21S,24R)-3,9,15,21-tetraisobutyl-6,18-bis(4-((4-(isopropoxymethyl)-1H-pyrazol-1-yl)methyl)benzyl)-4,10,12,16,22,24-hexamethyl-1,7,13,19-tetraoxa-4,10,16,22-tetraazacyclotetracosan-2,5,8,11,14,17,20,23-octaone] | 0.001 to 0.01 | 0.001 to 0.01 |
| CCCc1ccnn1Cc1ccc(C[C@H]2OC(=O)[C@H](CC(C)C)N(C)C(=O)[C@@H](C)OC(=O)[C@H](CC(C)C)N(C)C(=O)[C@@H](Cc3ccc(Cn4nccc4CCC)cc3)OC(=O)[C@H](CC(C)C)N(C)C(=O)[C@@H](C)OC(=O)[C@H](CC(C)C)N(C)C2=O)cc1 [Example 1b-205, (3S,6R,9S,12R,15S,18R,21S,24R)-3,9,15,21-tetraisobutyl-4,6,10,16,18,22-hexamethyl-12,24-bis(4-((5-propyl-1H-pyrazol-1-yl)methyl)benzyl)-1,7,13,19-tetraoxa-4,10,16,22-tetraazacyclotetracosan-2,5,8,11,14,17,20,23-octaone] | 0.001 to 0.01 | 0.0001 to 0.001 |
| CC(C)Cc1ccnn1Cc1ccc(C[C@H]2OC(=O)[C@H](CC(C)C)N(C)C(=O)[C@@H](C)OC(=O)[C@H](CC(C)C)N(C)C(=O)[C@@H](Cc3ccc(Cn4nccc4CC(C)C)cc3)OC(=O)[C@H](CC(C)C)N(C)C(=O)[C@@H](C)OC(=O)[C@H](CC(C)C)N(C)C2=O)cc1 [Example 1b-209, (3S,6R,9S,12R,15S,18R,21S,24R)-3,9,15,21-tetraisobutyl-6,18-bis(4-((5-isobutyl-1H-pyrazol-1-yl)methyl)benzyl)-4,10,12,16, 22,24-hexamethyl-1,7,13,19-tetraoxa-4,10,16,22-tetraazacyclotetracosan-2,5,8,11,14,17,20,23-octaone] | 0.01 to 0.1 | 0.0001 to 0.001 |
| CC(C)C[C@H]1C(=O)O[C@H](Cc2ccc(Cn3cc(C#N)cn3)cc2)C(=O)N(C)[C@@H](CC(C)C)C(=O)O[C@H](C)C(=O)N(C)[C@@H](CC(C)C)C(=O)O[C@H](Cc2ccccc2)C(=O)N(C)[C@@H](CC(C)C)C(=O)O[C@H](C)C(=O)N1C [Example 2-10, 1-(4-(((2R,5S,8R,11S,14R,17S,20R,23S)-14-benzyl-5,11,17,23-tetraisobutyl-4,8,10,16,20,22-hexamethyl-3,6,9,12,15,18,21,24-octaoxo-1,7,13,19-tetraoxa-4,10,16,22-tetraazacyclotetracosan-2-yl)methyl)benzyl)-1H-pyrazole-4-carbonitrile] | 0.001 to 0.01 | 0.0001 to 0.001 |
| CC(C)C[C@H]1C(=O)O[C@H](Cc2ccc(Cn3cc(Cl)cn3)cc2)C(=O)N(C)[C@@H](CC(C)C)C(=O)O[C@H](C)C(=O)N(C)[C@@H](CC(C)C)C(=O)O[C@H](Cc2ccccc2)C(=O)N(C)[C@@H](CC(C)C)C(=O)O[C@H](C)C(=O)N1C [Example 2-25, (3S,6R,9S,12R,15S,18R,21S,24R)-6-benzyl-18-(4-((4-chloro-1H-pyrazol-1-yl)methyl)benzyl)-3,9,15,21-tetraisobutyl-4,10,12,16,22,24-hexamethyl-1,7,13,19-tetraoxa-4,10,16,22-tetraazacyclotetracosan-2,5,8,11,14,17,20,23-octaone] | 0.001 to 0.01 | 0.0001 to 0.001 |
| CC(C)C[C@H]1C(=O)O[C@H](Cc2ccc(Cn3cc(I)cn3)cc2)C(=O)N(C)[C@@H](CC(C)C)C(=O)O[C@H](C)C(=O)N(C)[C@@H](CC(C)C)C(=O)O[C@H](Cc2ccccc2)C(=O)N(C)[C@@H](CC(C)C)C(=O)O[C@H](C)C(=O)N1C [Example 2-41, (3S,6R,9S,12R,15S,18R,21S,24R)-6-benzyl-18-(4-((4-iodo-1H-pyrazol-1-yl)methyl)benzyl)-3,9,15,21-tetraisobutyl-4,10,12,16,22,24-hexamethyl-1,7,13,19-tetraoxa-4,10,16,22-tetraazacyclotetracosan-2,5,8,11,14,17,20,23-octaone] | 0.001 to 0.01 | 0.0001 to 0.001 |
| CC(C)C[C@H]1C(=O)O[C@H](Cc2ccc(Cn3nc(C(F)(F)F)cc3C(F)(F)F)cc2)C(=O)N(C)[C@@H](CC(C)C)C(=O)O[C@H](C)C(=O)N(C)[C@@H](CC(C)C)C(=O)O[C@H](Cc2ccccc2)C(=O)N(C)[C@@H](CC(C)C)C(=O)O[C@H](C)C(=O)N1C [Example 2-55, (3S,6R,9S,12R,15S,18R,21S,24R)-6-benzyl-18-(4-((3,5-bis(trifluoromethyl)-1H-pyrazol-1-yl)methyl)benzyl)-3,9,15,21-tetraisobutyl-4,10,12,16,22,24-hexamethyl-1,7,13,19-tetraoxa-4,10,16,22-tetraazacyclotetracosan-2,5,8,11,14,17,20,23-octaone] | 0.001 to 0.01 | 0.0001 to 0.001 |
